# Source: paper PMC3864238 (Pharmaceutics, 2011)
# Columns and labels:
# [1] = system: PBMCs; test: Cellular association ratio (CAR) of radiolabelled drugs in PBMCs, drug-drug interaction; assay type: in vitro ADME, human; conditions: for effect of unlabelled drug on CAR of [^3H]-TDF: 1 μM [^3H]-TDF; for effect of unlabelled drug on CAR of [^3H]-TDF / effect of unlabelled drug on CAR of [^3H]-ddI: dI 100 μM; for effect of unlabelled drug on CAR of [^3H]-ddI: 1 μM [^3H]-ddI; for cellular association ratio (CAR): 1 μM labelled drug, 30–45 min, no interacting drug, mean ± S.D.; for cellular association ratio (CAR) / effect of incubation at 4 °C on cell-associated concentration: PBMCs; for effect of incubation at 4 °C on cell-associated concentration: 4 °C vs 37 °C
# Procedure: 11 PBMC samples were isolated from blood buffy coats using Lymphoprep (Alexis-sheild, Oslo, Norway), following the manufacturer's instructions. An aliquot of the PBMC samples were cryopreserved in fetal calf serum containing 10% dimethyl sulphoxide for batch analysis of membrane proteins by flow cytometry.
# We also used 50 μM dipyridamole, 100 μM of deoxycytidine (dC), deoxyinosine (dI) and deoxyguanosine (dG) as positive controls to inhibit the transport of the drugs. The concentrations used of these inhibitors were based on previous observations. […] In a limited number of PBMC samples, we investigated the effects of two drug combinations on the uptake of labelled compounds as described above. The incubations were terminated by centrifugation (15,000 g, 1 min at 0 °C). A-100 μL aliquot of the supernatant was counted for radioactivity and the cell pellets were washed three times in ice-cold phosphate buffered saline followed by rapid centrifugation before the pellets were solubilised in 100 μL of distilled water as described previously and counted for radioactivity.
# [2] = system: PBMCs; test: Cell fractionation: membrane-bound and intracellular radiolabelled drug in PBMCs; assay type: in vitro ADME, human; conditions: 50 μM ABC
# Procedure: In a separate experiment, cells were incubated with the tritiated compounds ([^3H]-3TC, -ddI and -TDF) in the absence or presence of 50 μM ABC as described. The assay was terminated by rapid centrifugation in a chilled microcentrifuge and the cell pellets were washed three times in ice-cold PBS as described, followed by three times of rapid freezing in liquid nitrogen and thawing at room temperature. The suspension was layered on top of 1 mL of ice-cold 42% percoll solution containing 0.25 M sucrose, 1.5 mM magnesium chloride, pH 7.1, and centrifuged (12,000 g, 30 min at 4 °C). After centrifugation, the radioactivity in the clear supernatant (assumed as intracellular drug) and in the pellet/debris, harvested from the bottom of the gradient (assumed as membrane-bound drug) were determined by scintillation counting.
# [3] = system: CEM, CEMVBL (P-gp-overexpressing), CEME1000 (MRP1-overexpressing) and U937 cells; test: Preliminary transport experiments in cell lines; assay type: in vitro ADME; conditions: data not shown; for concentration-dependent effect of unlabelled drug on accumulation of the labelled drugs: 0-100 μM unlabelled drug, CEM, CEMVBL, CEME1000 and U937 cells
# [4] = system: BCRP; set-up: method as in PMID 17202245; conditions: cited from earlier work
# [5] = system: P-gp; conditions: cited from earlier work
# [6] = system: MRP; set-up: method as in PMID 17328866, PMID 17202245, PMID 19075072; conditions: cited from earlier work
# [7] = Octanol-saline partition coefficient; assay type: physicochemical; conditions: octanol/phosphate buffered saline; radiolabelled drug 10-31 nM
# Procedure: Briefly, an equal volume of octanol and phosphate buffered saline (PBS) were presaturated by vigorously vortexing them for 5 min. The suspension was allowed to settle for 10 min before the upper saturated octanol layer was carefully removed and stored in a separate tube. […] Then 540 μL aliquots of each compound were added to an equal volume of presaturated octanol and vortexed for 5 min. The samples were centrifuged (1000 g for 5 min). The concentrations of radiolabelled drug in a volume of the octanol (upper layer) and in a similar volume of saline (lower layer) were measured using scintillation counting. The octanol-saline partition coefficient was determined as a ratio of radiolabelled drug in the octanol phase to radiolabelled drug concentration in the saline phase.
# [8] = system: guinea-pig brain perfusion and choroid plexus models; conditions: cited from earlier work
# [9] = system: P-gp; set-up: method as in PMID 11145192; conditions: cited from earlier work
# [10] = unlabelled drugs 50 μM, dipyridamole 50 μM
"intracellular drug concentration, effect of ABC [2]","membrane-bound drug concentration, effect of ABC [2]",concentration-dependent effect of unlabelled drug on accumulation of the labelled drugs [3],Partition coefficient (mean ± SD) [7],SMILES,effect of incubation at 4 °C on cell-associated concentration [1],inhibition of MRP activity [6],other results
–,–,–,–,OCCN(CCO)c1nc(N2CCCCC2)c2nc(N(CCO)CCO)nc(N3CCCCC3)c2n1 [dipyridamole],–,–,"effect of unlabelled drug on CAR of [^3H]-TDF [1, 10]: unaffected"
unaffected,unaffected,no concentration-dependent effects,–,"CC(C)OC(=O)OCOP(=O)(CO[C@H](C)Cn1cnc2c(N)ncnc21)OCOC(=O)OC(C)C.O=C(O)/C=C/C(=O)O [TDF, Tenofovir disoproxil fumarate]",significantly (P < 0.001) reduced at 4 °C,inhibited,"effect of unlabelled drug on CAR of [^3H]-3TC ([1]; 1 μM [^3H]-3TC, unlabelled drugs 50 μM, dipyridamole 50 μM, dC 100 μM): significantly (P < 0.05) reduced uptake; effect of unlabelled drug on CAR of [^3H]-ddI [1, 10]: no effect; cellular association ratio (CAR) [1]: 2.20 ± 0.29; BCRP inhibitory effect [4]: devoid of any BCRP inhibitory effect; inhibition of P-gp activity [5]: inhibited"
–,–,no concentration-dependent effects,7.065 ± 0.44,"Nc1nc(NC2CC2)c2ncn([C@H]3C=C[C@@H](CO)C3)c2n1 [ABC, abacavir]",did not affect,inhibited,"effect of unlabelled drug on CAR of [^3H]-ddI [1, 10]: no effect; cellular association ratio (CAR) [1]: 7.62 ± 1.32; BCRP inhibitory effect [4]: inhibits; inhibition of P-gp activity [5]: inhibited; effect on intracellular accumulation of [^3H]-ddI [8]: increased"
significantly (P < 0.05) decreased,unaffected,–,–,"O=c1[nH]cnc2c1ncn2[C@H]1CC[C@@H](CO)O1 [ddI, didanosine]",significantly (P < 0.001) reduced at 4 °C,–,–
–,–,–,–,"OC[C@H]1O[C@@H](n2cnc3c(O)ncnc32)C[C@@H]1O [dI, deoxyinosine]",–,–,"effect of unlabelled drug on CAR of [^3H]-TDF [1, 10]: unaffected"
unaffected,significantly (P < 0.05) decreased,no concentration-dependent effects,0.117 ± 0.0049,"Nc1ccn([C@@H]2CS[C@H](CO)O2)c(=O)n1 [3TC, lamivudine]",significantly (P < 0.001) reduced at 4 °C,inhibited,P-gp substrate ([3]; preliminary studies): not a P-gp substrate; P-gp substrate [9]: not a substrate
–,–,–,0.0022 ± 0.0001,"OC[C@@H](O)[C@@H](O)[C@H](O)[C@H](O)CO [[^14C]-Mannitol, mannitol]",–,–,–
